# Results as given in ChEMBL document CHEMBL1201862, “PubChem BioAssay data set” (2004).
# Active and inactive are the calls of the source.
# Tests used:
# [1] = molecular target: T1, RNA-binding protein pos-1 (Caenorhabditis elegans, UniProt G5EF15); assay: inhibitors of POS-1/mex-3 RNA binding, dose response, biochemical, fluorescence polarization (AID 1964);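 further: purified POS-1 fused to maltose binding protein made in E. coli; potency of compounds blocking POS-1 binding to fluorescent RNA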
# T1 sequence (G5EF15 whole entry): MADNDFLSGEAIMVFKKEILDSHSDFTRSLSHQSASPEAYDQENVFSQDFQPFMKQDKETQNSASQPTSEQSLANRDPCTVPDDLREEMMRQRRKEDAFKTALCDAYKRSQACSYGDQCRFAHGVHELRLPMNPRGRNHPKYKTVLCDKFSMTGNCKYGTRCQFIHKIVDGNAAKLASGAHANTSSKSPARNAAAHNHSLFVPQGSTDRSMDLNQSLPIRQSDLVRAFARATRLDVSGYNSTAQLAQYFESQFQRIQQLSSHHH
# [2] = growth suppression of PTEN-null colon cells, dose response, cell-based, HCT116 PTEN knockout (AID 1047); type: functional;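 further: HCT116 colon tumor cells with PTEN knocked out; cells exposed to compound for 60 hours before readout; potency for loss of cell viability measured by luminescence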
# Oxytocin receptor = Oxytocin receptor (Homo sapiens, UniProt P30559); assay: Counterscreen for vasopressin 1 receptor (V1R) agonists: Fluorescence-based cell-based high throughput dose response assay for agonists of the Oxytocin Receptor (OXTR). [Related pubchem assays: 2435 (Primary screen (OXTR agonists in singlicate)), 434964 (Confirmation screen (V1R agonists in triplicate)), 434969 (Counterscreen (OXTR agonists in …; type: functional
# [3] = molecular target: UDP-galactopyranose mutase (Mycobacterium tuberculosis, UniProt P9WIQ1); assay: Inhibitors of Mycobacterium tuberculosis UDP-galactopyranose mutase (UGM) enzyme Measured in Biochemical System Using Plate Reader - 2105-02_Inhibitor_Dose_CherryPick_Activity. [Related pubchem assays (depositor defined):AID504439]
# [4] = molecular target: T2, Zinc finger protein mex-5 (Caenorhabditis elegans, UniProt Q9XUB2); assay: MEX-5/TCR-2 RNA interaction inhibitors, dose response, biochemical, C. elegans, fluorescence polarization (AID 1960)
# T2 sequence (Q9XUB2 whole entry): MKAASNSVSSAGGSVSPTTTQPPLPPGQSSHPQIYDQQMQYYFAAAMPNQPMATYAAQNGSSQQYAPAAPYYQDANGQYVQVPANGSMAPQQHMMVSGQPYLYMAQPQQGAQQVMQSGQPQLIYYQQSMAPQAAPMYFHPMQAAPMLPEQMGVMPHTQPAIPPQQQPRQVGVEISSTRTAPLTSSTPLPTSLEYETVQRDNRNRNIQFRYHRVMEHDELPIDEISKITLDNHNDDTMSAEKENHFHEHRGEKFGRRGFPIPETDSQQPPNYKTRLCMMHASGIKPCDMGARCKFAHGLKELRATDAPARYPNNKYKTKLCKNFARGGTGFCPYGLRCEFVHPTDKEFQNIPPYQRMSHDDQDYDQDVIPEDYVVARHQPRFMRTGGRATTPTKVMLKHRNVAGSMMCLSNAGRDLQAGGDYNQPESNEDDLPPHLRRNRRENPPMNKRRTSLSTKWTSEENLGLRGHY
# [5] = Luminescence Cell-Based Dose Confirmation HTS to Identify Activators of 5'UTR Stem-Loop Driven Alpha-Synuclein mRNA Translation in H4 Neuroglioblastoma Cells. [Related pubchem assays: 1829 (Project Summary), 1814 (Primary HTS)]; type: functional
# Vasopressin V1a receptor = Vasopressin V1a receptor (Homo sapiens, UniProt P37288); assay: Fluorescence-based cell-based high throughput dose response screening assay for agonists of the vasopressin 1 receptor (V1R).; type: functional
# [6] = growth suppression of beta-catenin-knockout colon cells, dose response, cell-based, HCT116, human colon tumor (AID 1045); type: functional;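 further: HCT116 colon tumor cells with beta catenin knocked out; cells exposed to compound for 60 hours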
# H4 = assay: Luminescence Cell-Based Dose Response HTS to Identify Activators of 5'UTR Stem-Loop Driven Prion Protein mRNA Translation in H4 Neuroglioblastoma Cells. [Related pubchem assays: 1829 (Project Summary), 1814 (Primary HTS)]; type: functional; settings: Homo sapiens
# [7] = Luminescence Cell-Based Dose Response HTS to Identify Activators of Luciferase Translation or Activity in H4 […] Cells. [Related pubchem assays: 1829 (Project Summary), 1814 (Primary HTS)]; type: functional
# [8] = molecular target: Kappa-type opioid receptor (Homo sapiens, UniProt P41145); assay: SAR analysis of small molecule agonists of the kappa opioid receptor via a luminescent beta-arrestin assay - Set 3. [Related pubchem assays (depositor defined):AID1777, AID1785, AID1786, AID1966, AID2133, AID2136, AID2284, AID2500]; type: functional
# Cytochrome P450 3A4 = Cytochrome P450 3A4 (Homo sapiens, UniProt P08684);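 further: CYP3A4 tested as one member of a cytochrome P450 panel screen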
# Cytochrome P450 2D6 = Cytochrome P450 2D6 (Homo sapiens, UniProt P10635);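 further: CYP2D6 member of a cytochrome P450 panel assay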
# ORF 73 = molecular target: T3, ORF 73 (Human herpesvirus 8, UniProt O40947); assay: inhibitors of C-LANA binding to LBS DNA, dose response, biochemical, fluorescence polarization, cherry-picked samples (AID 504725); set-up: species or system Human gammaherpesvirus 8;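 further: fluorescence polarization of a labeled DNA duplex reporting LANA DNA binding; potency is for inhibitors that block LANA binding to the DNA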
# T3 sequence (O40947 whole entry): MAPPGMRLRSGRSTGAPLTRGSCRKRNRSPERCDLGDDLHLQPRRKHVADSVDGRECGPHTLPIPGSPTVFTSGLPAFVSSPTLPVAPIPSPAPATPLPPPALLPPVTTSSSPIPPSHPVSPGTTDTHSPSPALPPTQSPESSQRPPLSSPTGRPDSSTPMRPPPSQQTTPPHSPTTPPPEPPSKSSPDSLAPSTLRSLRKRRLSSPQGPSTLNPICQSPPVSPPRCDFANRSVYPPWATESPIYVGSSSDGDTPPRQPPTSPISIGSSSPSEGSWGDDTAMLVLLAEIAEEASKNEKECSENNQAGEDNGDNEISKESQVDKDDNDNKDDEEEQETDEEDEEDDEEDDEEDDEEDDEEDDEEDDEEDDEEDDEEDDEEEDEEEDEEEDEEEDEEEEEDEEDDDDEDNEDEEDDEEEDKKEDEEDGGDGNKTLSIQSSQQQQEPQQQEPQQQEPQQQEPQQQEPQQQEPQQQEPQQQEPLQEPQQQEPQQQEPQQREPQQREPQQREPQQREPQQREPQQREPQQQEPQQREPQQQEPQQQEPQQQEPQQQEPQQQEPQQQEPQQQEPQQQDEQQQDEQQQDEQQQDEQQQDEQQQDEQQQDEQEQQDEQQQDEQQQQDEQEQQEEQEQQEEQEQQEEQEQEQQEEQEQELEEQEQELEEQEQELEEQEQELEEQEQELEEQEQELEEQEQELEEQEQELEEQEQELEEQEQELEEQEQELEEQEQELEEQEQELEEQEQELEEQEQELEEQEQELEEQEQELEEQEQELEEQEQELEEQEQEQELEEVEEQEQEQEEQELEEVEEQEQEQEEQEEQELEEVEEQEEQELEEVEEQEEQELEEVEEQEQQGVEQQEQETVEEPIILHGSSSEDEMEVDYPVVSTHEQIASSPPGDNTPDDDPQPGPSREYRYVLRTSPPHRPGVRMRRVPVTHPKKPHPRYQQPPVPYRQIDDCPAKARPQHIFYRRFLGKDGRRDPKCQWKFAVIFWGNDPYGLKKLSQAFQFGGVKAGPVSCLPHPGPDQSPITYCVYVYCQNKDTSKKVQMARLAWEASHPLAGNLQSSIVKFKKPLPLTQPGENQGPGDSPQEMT
# Keap1/Nrf2 = Keap1/Nrf2 (Homo sapiens, UniProt Q14145); assay: Keap1-Nrf2 protein-protein interaction inhibitors, dose response, biochemical, fluorescence polarization, cherry-picked samples (AID 588683)
# [9] = molecular target: DNA dC->dU-editing enzyme APOBEC-3A (Homo sapiens, UniProt P31941); assay: Dose Response confirmation of small molecule APOBEC3A DNA Deaminase Inhibitors via a fluorescence-based single-stranded DNA deaminase assay. [Related pubchem assays (depositor defined):AID493011, AID493024]; type: functional
# [10] = molecular target: DNA dC->dU-editing enzyme APOBEC-3G (Homo sapiens, UniProt Q9HC16); type: functional;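 further: Dose-response counterscreen measuring inhibition of APOBEC3G DNA deaminase activity, run while confirming APOBEC3A inhibitors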
# [11] = molecular target: T4, Runt-related transcription factor 1/Core-binding factor subunit beta (Homo sapiens, UniProt Q01196+Q13951); assay: inhibitors of RUNX1 Runt–CBFb-SMMHC binding, primary screen, biochemical, FRET, Cerulean-Runt, Venus-CBFb-SMMHC, uHTS (AID 1434); type: protein assay;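 further: partner is the CBFb-SMMHC leukemia fusion protein rather than wild-type CBFb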
# [12] = molecular target: T4, Runt-related transcription factor 1/Core-binding factor subunit beta; assay: inhibitors of RUNX1 Runt–CBFb-SMMHC binding, biochemical, TR-FRET (AID 1438); type: protein assay
# Cytochrome P450 1A2 = molecular target: T5, Cytochrome P450 1A2 (Homo sapiens, UniProt P05177);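 further: PubChem cytochrome P450 panel assay, CYP1A2 panel member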
# T5 sequence (P05177 whole entry): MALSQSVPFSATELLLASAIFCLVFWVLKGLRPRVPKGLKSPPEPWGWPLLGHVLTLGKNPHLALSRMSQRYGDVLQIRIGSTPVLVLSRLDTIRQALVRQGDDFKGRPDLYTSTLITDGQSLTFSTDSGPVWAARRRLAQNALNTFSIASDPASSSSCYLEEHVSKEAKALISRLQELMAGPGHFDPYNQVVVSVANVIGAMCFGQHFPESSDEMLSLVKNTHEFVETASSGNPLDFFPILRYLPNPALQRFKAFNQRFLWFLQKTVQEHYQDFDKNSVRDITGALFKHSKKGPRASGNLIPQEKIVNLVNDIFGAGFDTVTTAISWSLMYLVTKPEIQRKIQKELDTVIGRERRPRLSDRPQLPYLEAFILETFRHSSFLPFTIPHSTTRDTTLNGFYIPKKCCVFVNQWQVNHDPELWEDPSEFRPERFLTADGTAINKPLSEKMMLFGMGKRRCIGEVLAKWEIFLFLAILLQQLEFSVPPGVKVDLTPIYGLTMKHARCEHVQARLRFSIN
# NS3 = NS3 (Hepatitis C virus, UniProt A3EZJ3); assay: PubChem AID 2173; set-up: species or system Hepacivirus hominis
# Phospholipase A2 = Phospholipase A2 (Homo sapiens, UniProt P04054); type: functional;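 further: confirmatory dose-response counterscreen on phospholipase A2, testing hits that came from an ultra-high-throughput screen for ATG4B inhibitors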
# Cysteine protease ATG4B = molecular target: T6, Cysteine protease ATG4B (Homo sapiens, UniProt Q9Y4P1); type: functional;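 further: Fluorescence-based dose-response confirmation assay measuring inhibition of ATG4B activity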
# T6 sequence (Q9Y4P1 whole entry): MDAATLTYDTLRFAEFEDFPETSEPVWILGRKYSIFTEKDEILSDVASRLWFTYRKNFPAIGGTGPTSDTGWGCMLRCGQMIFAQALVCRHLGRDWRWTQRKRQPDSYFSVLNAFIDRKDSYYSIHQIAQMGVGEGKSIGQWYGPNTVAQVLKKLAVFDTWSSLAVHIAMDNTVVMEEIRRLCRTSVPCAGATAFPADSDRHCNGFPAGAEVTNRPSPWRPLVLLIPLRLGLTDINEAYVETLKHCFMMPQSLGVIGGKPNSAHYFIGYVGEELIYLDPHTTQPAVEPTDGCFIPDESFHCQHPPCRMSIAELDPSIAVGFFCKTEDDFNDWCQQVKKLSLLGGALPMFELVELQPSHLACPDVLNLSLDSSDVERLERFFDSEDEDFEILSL
# [13] = THP-1 cell cytotoxicity, dose response, cytotoxicity control for Vif-APOBEC3G degradation inhibitor project, THP-1 cells (AID 1117359); type: functional; settings: Human immunodeficiency virus 1, THP-1
# [14] = molecular target: T7, Mannose-6-phosphate isomerase (Homo sapiens, UniProt P34949); assay: PMI enzyme inhibitors, confirmation, biochemical, fluorescence intensity (AID 1535)
# T7 sequence (P34949 whole entry): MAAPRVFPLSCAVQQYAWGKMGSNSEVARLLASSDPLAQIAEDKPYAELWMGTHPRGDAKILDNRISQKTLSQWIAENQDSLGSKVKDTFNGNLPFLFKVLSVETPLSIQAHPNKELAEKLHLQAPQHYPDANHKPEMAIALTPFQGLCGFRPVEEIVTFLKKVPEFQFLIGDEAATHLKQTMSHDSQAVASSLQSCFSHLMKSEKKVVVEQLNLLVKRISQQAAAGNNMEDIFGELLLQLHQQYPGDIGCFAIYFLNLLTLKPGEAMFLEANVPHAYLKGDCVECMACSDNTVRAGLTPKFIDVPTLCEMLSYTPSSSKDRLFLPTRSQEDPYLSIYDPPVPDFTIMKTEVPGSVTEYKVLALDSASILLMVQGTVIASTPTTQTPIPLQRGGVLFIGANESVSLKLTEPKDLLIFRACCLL
# [15] = molecular target: Phosphoethanolamine/phosphocholine phosphatase (Homo sapiens, UniProt Q8TCT1); assay: SAR assay for compounds that inhibit PHOSPHO1. [Related pubchem assays (depositor defined):AID1545, AID1565, AID1574]
# Phosphomannomutase 2 = molecular target: T8, Phosphomannomutase 2 (Homo sapiens, UniProt O15305); assay: Counter screen SAR assay for PMM2 inhibitors via a fluorescence intensity assay. [Related pubchem assays (depositor defined):AID1545, AID1574]
# T8 sequence (O15305 whole entry): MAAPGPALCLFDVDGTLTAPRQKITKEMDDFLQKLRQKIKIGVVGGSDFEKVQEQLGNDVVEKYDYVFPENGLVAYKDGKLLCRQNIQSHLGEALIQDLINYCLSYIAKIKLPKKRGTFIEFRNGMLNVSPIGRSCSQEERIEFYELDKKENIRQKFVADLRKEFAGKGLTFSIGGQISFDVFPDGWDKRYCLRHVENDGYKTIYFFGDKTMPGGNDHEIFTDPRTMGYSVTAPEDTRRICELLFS
# T4 sequence (Q01196 whole entry, the tested form may be a part): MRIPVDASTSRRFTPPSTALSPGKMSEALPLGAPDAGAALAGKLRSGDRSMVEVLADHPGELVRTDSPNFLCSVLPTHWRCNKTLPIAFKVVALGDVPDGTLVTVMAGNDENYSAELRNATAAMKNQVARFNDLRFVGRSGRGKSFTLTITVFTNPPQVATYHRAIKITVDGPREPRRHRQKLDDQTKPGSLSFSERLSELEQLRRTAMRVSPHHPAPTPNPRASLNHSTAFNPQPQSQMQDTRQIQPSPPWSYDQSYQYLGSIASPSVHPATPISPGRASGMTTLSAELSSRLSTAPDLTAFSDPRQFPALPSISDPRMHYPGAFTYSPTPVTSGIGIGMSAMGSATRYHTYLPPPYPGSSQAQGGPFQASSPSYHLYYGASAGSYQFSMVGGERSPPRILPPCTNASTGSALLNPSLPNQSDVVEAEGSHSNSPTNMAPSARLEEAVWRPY
# T4 sequence (Q13951 whole entry, the tested form may be a part): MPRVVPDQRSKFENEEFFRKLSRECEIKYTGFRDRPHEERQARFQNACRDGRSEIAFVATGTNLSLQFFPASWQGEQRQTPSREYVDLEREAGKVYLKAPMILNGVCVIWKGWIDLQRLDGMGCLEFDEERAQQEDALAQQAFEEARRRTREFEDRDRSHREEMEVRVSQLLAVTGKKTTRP
# Chain of UDP-galactopyranose mutase (P9WIQ1 whole entry): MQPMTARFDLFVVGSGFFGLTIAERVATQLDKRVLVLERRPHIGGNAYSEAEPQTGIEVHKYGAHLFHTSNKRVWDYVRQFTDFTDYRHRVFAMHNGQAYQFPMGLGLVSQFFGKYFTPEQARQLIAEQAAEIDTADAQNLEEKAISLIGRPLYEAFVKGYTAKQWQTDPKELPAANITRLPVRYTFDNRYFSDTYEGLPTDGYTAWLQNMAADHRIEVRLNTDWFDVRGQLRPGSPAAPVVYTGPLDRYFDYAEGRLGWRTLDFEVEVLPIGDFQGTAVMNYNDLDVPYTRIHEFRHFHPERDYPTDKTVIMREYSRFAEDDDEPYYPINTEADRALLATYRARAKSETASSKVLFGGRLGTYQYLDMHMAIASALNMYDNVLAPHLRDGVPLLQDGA
# Chain of Cytochrome P450 2D6 (P10635 whole entry): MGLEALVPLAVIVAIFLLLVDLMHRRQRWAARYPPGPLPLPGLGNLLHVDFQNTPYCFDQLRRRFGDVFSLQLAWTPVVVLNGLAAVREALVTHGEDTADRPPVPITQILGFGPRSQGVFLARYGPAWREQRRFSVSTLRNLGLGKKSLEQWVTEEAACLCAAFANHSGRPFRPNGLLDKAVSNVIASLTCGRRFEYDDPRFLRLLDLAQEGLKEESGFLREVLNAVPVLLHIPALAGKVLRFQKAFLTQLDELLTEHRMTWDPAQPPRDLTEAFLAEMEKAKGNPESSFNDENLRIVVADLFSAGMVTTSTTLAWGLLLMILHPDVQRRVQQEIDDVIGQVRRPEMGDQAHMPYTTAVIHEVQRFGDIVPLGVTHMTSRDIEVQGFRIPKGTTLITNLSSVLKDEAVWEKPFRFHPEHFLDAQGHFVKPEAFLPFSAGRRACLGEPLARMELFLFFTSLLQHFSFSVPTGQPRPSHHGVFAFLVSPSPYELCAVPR
# Chain of Cytochrome P450 3A4 (P08684 whole entry): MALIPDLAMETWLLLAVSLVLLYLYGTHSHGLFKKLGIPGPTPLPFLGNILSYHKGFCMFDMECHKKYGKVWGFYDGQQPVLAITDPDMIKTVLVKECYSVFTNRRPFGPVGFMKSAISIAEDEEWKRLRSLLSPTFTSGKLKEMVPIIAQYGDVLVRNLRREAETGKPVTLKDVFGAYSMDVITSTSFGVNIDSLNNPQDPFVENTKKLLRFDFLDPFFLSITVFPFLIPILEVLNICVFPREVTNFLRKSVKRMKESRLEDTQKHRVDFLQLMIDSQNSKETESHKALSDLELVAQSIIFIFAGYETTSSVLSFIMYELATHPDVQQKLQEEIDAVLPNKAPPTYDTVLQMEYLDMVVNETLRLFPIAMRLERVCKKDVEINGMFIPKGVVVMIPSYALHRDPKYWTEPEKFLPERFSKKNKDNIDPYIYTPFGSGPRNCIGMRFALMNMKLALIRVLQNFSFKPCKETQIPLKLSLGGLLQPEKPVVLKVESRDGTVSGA
# Chain of NS3 (A3EZJ3 whole entry): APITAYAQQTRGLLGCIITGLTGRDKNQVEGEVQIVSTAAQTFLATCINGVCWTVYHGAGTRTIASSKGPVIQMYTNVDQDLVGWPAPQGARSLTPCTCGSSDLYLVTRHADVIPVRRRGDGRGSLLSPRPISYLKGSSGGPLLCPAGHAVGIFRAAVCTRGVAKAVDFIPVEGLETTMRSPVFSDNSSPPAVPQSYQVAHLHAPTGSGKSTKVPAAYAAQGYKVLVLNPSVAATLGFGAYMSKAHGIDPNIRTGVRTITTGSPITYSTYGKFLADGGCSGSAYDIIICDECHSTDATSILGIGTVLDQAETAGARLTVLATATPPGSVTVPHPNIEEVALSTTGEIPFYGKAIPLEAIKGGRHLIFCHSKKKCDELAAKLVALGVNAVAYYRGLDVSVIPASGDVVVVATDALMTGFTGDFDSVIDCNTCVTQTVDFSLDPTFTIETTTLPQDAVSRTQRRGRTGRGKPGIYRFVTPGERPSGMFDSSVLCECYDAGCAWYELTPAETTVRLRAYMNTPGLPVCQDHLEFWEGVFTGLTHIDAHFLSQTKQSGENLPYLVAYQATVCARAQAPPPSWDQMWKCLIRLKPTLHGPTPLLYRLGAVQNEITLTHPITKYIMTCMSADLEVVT
# Chain of Phospholipase A2 (P04054 whole entry): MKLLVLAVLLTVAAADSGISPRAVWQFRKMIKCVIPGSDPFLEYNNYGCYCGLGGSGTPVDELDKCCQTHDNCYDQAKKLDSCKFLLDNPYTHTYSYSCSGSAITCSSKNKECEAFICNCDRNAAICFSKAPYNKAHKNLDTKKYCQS
# Chain of Oxytocin receptor (P30559 whole entry): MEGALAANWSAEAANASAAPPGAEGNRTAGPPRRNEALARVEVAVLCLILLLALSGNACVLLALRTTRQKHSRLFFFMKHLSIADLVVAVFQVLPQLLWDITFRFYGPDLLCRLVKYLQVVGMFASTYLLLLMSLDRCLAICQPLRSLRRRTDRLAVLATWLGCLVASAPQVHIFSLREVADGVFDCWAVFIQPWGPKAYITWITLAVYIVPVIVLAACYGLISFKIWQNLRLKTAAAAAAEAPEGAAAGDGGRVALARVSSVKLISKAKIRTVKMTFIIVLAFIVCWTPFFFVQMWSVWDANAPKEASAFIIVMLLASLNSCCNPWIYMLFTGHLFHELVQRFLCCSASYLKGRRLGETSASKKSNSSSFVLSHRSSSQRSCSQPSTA
# Chain of Kappa-type opioid receptor (P41145 whole entry): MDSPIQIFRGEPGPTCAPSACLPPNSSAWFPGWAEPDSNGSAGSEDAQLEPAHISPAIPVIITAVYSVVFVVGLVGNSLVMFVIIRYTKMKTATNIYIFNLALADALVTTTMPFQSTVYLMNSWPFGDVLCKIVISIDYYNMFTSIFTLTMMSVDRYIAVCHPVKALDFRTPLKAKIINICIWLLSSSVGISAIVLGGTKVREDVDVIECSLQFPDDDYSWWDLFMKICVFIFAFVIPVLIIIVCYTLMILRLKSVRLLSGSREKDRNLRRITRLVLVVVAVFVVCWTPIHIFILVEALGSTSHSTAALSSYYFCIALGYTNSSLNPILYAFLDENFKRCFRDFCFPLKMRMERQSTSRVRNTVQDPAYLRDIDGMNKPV
# Chain of Phosphoethanolamine/phosphocholine phosphatase (Q8TCT1 whole entry): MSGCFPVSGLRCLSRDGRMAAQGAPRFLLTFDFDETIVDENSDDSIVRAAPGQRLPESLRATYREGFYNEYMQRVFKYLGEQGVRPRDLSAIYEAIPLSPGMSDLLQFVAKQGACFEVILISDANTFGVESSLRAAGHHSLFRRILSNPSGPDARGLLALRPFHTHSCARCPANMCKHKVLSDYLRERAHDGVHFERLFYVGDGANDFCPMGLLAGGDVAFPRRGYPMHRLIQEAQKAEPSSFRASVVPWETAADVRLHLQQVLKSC
# Chain of DNA dC->dU-editing enzyme APOBEC-3G (Q9HC16 whole entry, the tested form may be a part): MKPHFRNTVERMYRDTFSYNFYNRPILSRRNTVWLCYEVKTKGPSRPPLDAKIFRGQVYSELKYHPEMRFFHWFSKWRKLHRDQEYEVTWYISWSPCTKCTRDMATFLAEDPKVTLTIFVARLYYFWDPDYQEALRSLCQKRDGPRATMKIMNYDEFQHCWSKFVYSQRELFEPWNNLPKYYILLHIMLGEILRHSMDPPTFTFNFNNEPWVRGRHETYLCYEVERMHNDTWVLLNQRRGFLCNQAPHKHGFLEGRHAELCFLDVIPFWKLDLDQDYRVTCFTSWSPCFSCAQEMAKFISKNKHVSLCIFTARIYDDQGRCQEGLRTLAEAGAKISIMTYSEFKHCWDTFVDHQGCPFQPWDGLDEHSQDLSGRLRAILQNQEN
# Chain of DNA dC->dU-editing enzyme APOBEC-3A (P31941 whole entry): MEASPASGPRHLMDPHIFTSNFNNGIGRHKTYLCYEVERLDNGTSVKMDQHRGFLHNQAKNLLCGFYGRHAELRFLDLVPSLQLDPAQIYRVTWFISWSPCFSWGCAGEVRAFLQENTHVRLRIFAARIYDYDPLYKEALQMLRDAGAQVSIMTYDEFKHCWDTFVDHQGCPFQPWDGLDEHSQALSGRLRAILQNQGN
# Chain of Vasopressin V1a receptor (P37288 whole entry): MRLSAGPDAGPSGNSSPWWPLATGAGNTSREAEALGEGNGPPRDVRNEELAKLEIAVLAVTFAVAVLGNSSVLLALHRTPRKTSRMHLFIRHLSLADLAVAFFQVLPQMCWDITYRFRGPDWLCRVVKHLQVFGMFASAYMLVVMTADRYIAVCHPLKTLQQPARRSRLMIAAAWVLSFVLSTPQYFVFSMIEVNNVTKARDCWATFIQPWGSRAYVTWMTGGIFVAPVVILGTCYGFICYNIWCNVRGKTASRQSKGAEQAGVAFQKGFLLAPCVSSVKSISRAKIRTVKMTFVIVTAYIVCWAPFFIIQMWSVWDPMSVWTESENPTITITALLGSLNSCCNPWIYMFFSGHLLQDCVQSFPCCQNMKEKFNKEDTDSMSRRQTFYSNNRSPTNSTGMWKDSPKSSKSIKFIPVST
smiles,measurement,setting,value
O=C1c2cccc3c(N4CCCCC4)ccc(c23)C(=O)N1CCO,EC50,[1],65.2 µM (active)
same,EC50,[2],67.5 µM (active)
same,EC50,Oxytocin receptor,> 3.32 µM (active)
same,AC50,[3],151 µM (active)
same,EC50,[4],114 µM (active)
same,EC50,[5],16.5 µM (active)
same,EC50,Vasopressin V1a receptor,4.75 µM (active)
same,EC50,[6],164 µM (active)
same,EC50,H4,> 120 µM (not active)
same,EC50,[7],94.8 µM (active)
Brc1ccc(-c2nnc(SCc3ccccc3)n2Cc2ccco2)cc1,EC50,[8],> 20 µM (inactive)
Cc1ccc(CC(=O)N2CC(C)OC(C)C2)cc1 (stereo unspecified),AC50,Cytochrome P450 3A4,inconclusive
same,AC50,Cytochrome P450 2D6,inconclusive
COC(=O)C[n+]1cccc2ccccc21,AC50,[3],35.7 µM (active)
same,AC50,ORF 73,6.51 µM (active)
same,AC50,Keap1/Nrf2,20.8 µM (active)
same,IC50,[9],2.81 µM (active)
same,IC50,[10],4.46 µM (active)
CCOCCCn1c(=N)c(C(N)=S)cc2c(=O)n3cccc(C)c3nc21,IC50,[11],0.257 µM (active)
same,IC50,[12],68.8 µM (inactive)
CCNC(=O)COC(=O)c1cc(O)nc2ccccc12,AC50,Cytochrome P450 2D6,inconclusive
same,AC50,Cytochrome P450 1A2,15.8 µM (inconclusive)
CC1CCCCC1NC(=O)COC(=O)c1c2c(nc3ccccc13)/C(=C/c1ccco1)CC2 (stereo unspecified),IC50,NS3,11.1 µM (not active)
same,IC50,Phospholipase A2,8.31 µM (active)
same,IC50,Cysteine protease ATG4B,14.4 µM (active)
same,IC50,[11],> 100 µM (inactive)
same,IC50,[12],10.6 µM (active)
same,CC50,[13],> 40 µM (active)
CCN(CC)S(=O)(=O)c1ccc(-n2sc3ccccc3c2=O)cc1,IC50,[14],> 50 µM (inactive)
same,IC50,[15],6.21 µM (inactive)
same,IC50,Phosphomannomutase 2,> 100 µM (inactive)
